Test: stability of individual enriched mycolactone isomers in presence and absence of laboratory light, followed by HPLC
Type: physicochemical
Conditions: ambient light versus no light; data not shown
Procedure: To monitor stability of the individual enriched isomers, HPLC data was collected on samples stored in the presence and absence of laboratory light. Measurements were made on samples stored in methanol at 23° C. Initial HPLC sampling was carried out on individual isomers shielded to minimize exposure to laboratory light. These same samples were allowed to remain in the autosampler, shielded from light, for 72 hours before additional HPLC data was collected. Following this, the samples were stored on a lab bench exposed to laboratory light for 52 hours, at which time the final HPLC data time point was collected. Under these conditions, samples that were shielded from light remained stable, showing no change in their respective HPLC chromatograms.

CC(=C\C=C\C(C)=C\C(O)C(O)CC(C)O)/C=C(C)/C=C/C(=O)OC1CCCC(=O)OC(C(C)C/C(C)=C/C(C)C(O)CC(C)O)C/C=C(\C)CC1C (centres unmarked) [mycolactone B]
equilibration between double bond isomers: occur only when the sample was exposed to ambient light

mycolactone A
equilibration between double bond isomers: occur only when the sample was exposed to ambient light

From patent publication US6562602B2, “Fermentation and purification of mycolactones” (priority 2000, dated 2003)
